Patent US8883792B2, “Substituted isoquinoline derivative” (D. Western Therapeutics Institute, Inc., priority 2010, dated 2014)
Counter-ions that a name gives are not always drawn.

System: rabbits (New Zealand White)
Experiment: Ocular hypotensive effect in rabbits
Type: in vivo, rabbit
Details: male New Zealand White rabbits, 0.04 mL eye drop, concentration of 1% (w/v) or lower, maximum ocular hypotensive rate vs vehicle-treated contralateral eye
Method: The compound of the present invention was administered to rabbits (New Zealand White, sex: male, 3 to 6 per group) and evaluated for its ocular hypotensive effect.
Each test compound was dissolved in a vehicle 1 (1.04 g of sodium dihydrogen phosphate dihydrate and 0.5 g of sodium chloride dissolved in purified water and then adjusted to pH 7.0 with sodium hydroxide to make the total amount to 100 mL) or a vehicle 2 (2% (w/v) aqueous boric acid solution) to prepare a test compound solution with a predetermined concentration.
The intraocular pressures of the rabbits were measured using Tiolat TonoVet handheld tonometer immediately before administration of test compound. The test compound solution and the vehicle were dropped at a volume of 0.04 mL to one eye and the contralateral eye, respectively, and the intraocular pressures were measured over time in the same way as above. The rate of the intraocular pressure of the eye receiving the test compound solution to that of the eye receiving the vehicle was calculated as an ocular hypotensive rate.

SMILES | Ocular hypotensive activity
C[C@H](CNCCc1ccccc1Cl)NS(=O)(=O)c1ccc2cnccc2c1 [Example 38, (R)—N-{1-(2-chlorophenethylamino)propan-2-yl}isoquinoline-6-sulfonamide dihydrochloride] | ++ (maximum ocular hypotensive rate of 15% or more)
C[C@H](CNCCc1ccc(Cl)cc1)NS(=O)(=O)c1ccc2cnccc2c1 [Example 39, (R)—N-{1-(4-chlorophenethylamino)propan-2-yl}isoquinoline-6-sulfonamide dihydrochloride] | ++ (maximum ocular hypotensive rate of 15% or more)
C[C@H](CNCCc1cccs1)NS(=O)(=O)c1ccc2cnccc2c1.Cl [Example 40, (R)—N-[1-{2-(thiophen-2-yl)ethylamino}propan-2-yl]isoquinoline-6-sulfonamide hydrochloride] | ++ (maximum ocular hypotensive rate of 15% or more)
C[C@H](CNCCc1ccsc1)NS(=O)(=O)c1ccc2cnccc2c1.Cl [Example 41, (R)—N-[1-{2-(thiophen-3-yl)ethylamino}propan-2-yl]isoquinoline-6-sulfonamide hydrochloride] | ++ (maximum ocular hypotensive rate of 15% or more)
C[C@H](CNCCc1ccncc1)NS(=O)(=O)c1ccc2cnccc2c1 [Example 42, (R)—N-[1-{2-(pyridin-4-yl)ethylamino}propan-2-yl]isoquinoline-6-sulfonamide trihydrochloride] | + (maximum ocular hypotensive rate of 5% or more and less than 15%)
C[C@H](CNC/C=C/c1ccc(Br)cc1)NS(=O)(=O)c1ccc2cnccc2c1 [Example 43, (R, E)-N-[1-{3-(4-bromophenyl)allylamino}propan-2-yl]isoquinoline-6-sulfonamide dihydrochloride] | ++ (maximum ocular hypotensive rate of 15% or more)
C[C@H](CNC/C=C/c1ccccc1)NS(=O)(=O)c1ccc2cnccc2c1 [Example 44, (R, E)-N-{1-(cinnamylamino)propan-2-yl}isoquinoline-6-sulfonamide dihydrochloride] | + (maximum ocular hypotensive rate of 5% or more and less than 15%)
C[C@H](CNCCOc1ccccc1)NS(=O)(=O)c1ccc2cnccc2c1 [Example 45, (R)—N-{1-(2-phenoxyethylamino)propan-2-yl}isoquinoline-6-sulfonamide dihydrochloride] | ++ (maximum ocular hypotensive rate of 15% or more)
C[C@H](CNCCc1cccc2ccccc12)NS(=O)(=O)c1ccc2cnccc2c1.Cl [Example 46] | ++ (maximum ocular hypotensive rate of 15% or more)
C#CCNC[C@@H](C)NS(=O)(=O)c1ccc2cnccc2c1 [Example 47, (R)—N-{1-(prop-2-yn-1-ylamino)propan-2-yl}isoquinoline-6-sulfonamide dihydrochloride] | ++ (maximum ocular hypotensive rate of 15% or more)
CO[C@H](CNC[C@@H](C)NS(=O)(=O)c1ccc2cnccc2c1)c1ccccc1.Cl [Example 48, N—[(R)-1-{(S)-2-methoxy-2-phenylethylamino}propan-2-yl]isoquinoline-6-sulfonamide hydrochloride] | ++ (maximum ocular hypotensive rate of 15% or more)
C[C@H](CNCCc1cccnc1)NS(=O)(=O)c1ccc2cnccc2c1.Cl [Example 49, (R)—N-[1-{2-(pyridin-3-yl)ethylamino}propan-2-yl]isoquinoline-6-sulfonamide hydrochloride] | ++ (maximum ocular hypotensive rate of 15% or more)
C[C@H](CNCC[C@@H](O)c1ccccc1)NS(=O)(=O)c1ccc2cnccc2c1.Cl [Example 50, N—[(R)-1-{(R)-3-hydroxy-3-phenylpropylamino}propan-2-yl]isoquinoline-6-sulfonamide hydrochloride] | + (maximum ocular hypotensive rate of 5% or more and less than 15%)
C[C@H](CNCCc1cccc(F)c1)NS(=O)(=O)c1ccc2cnccc2c1.Cl [Example 52, (R)—N-{1-(3-fluorophenethylamino)propan-2-yl}isoquinoline-6-sulfonamide hydrochloride] | ++ (maximum ocular hypotensive rate of 15% or more)
C[C@H](CNCCc1cccc(Cl)c1)NS(=O)(=O)c1ccc2cnccc2c1 [Example 54, (R)—N-{1-(3-chlorophenethylamino)propan-2-yl}isoquinoline-6-sulfonamide hydrochloride] | ++ (maximum ocular hypotensive rate of 15% or more)
C[C@H](CNCCc1ccc(Br)cc1)NS(=O)(=O)c1ccc2cnccc2c1.Cl [Example 55, (R)—N-{1-(4-bromophenethylamino)propan-2-yl}isoquinoline-6-sulfonamide hydrochloride] | ++ (maximum ocular hypotensive rate of 15% or more)

SMILES | Ocular hypotensive activity
Cc1ccccc1CCNC[C@@H](C)NS(=O)(=O)c1ccc2cnccc2c1.Cl [Example 56, (R)—N-{1-(2-methylphenethylamino)propan-2-yl}isoquinoline-6-sulfonamide hydrochloride] | ++ (maximum ocular hypotensive rate of 15% or more)
Cc1cccc(CCNC[C@@H](C)NS(=O)(=O)c2ccc3cnccc3c2)c1.Cl [Example 57, (R)—N-{1-(3-methylphenethylamino)propan-2-yl}isoquinoline-6-sulfonamide hydrochloride] | ++ (maximum ocular hypotensive rate of 15% or more)
C[C@H](CNCCc1ccc([N+](=O)[O-])cc1)NS(=O)(=O)c1ccc2cnccc2c1.Cl [Example 59, (R)—N-{1-(4-nitrophenethylamino)propan-2-yl}isoquinoline-6-sulfonamide hydrochloride] | ++ (maximum ocular hypotensive rate of 15% or more)
C[C@H](CNCCc1ccc(C(F)(F)F)cc1)NS(=O)(=O)c1ccc2cnccc2c1.Cl [Example 60, (R)—N-{1-(4-trifluoromethylphenethylamino)propan-2-yl}isoquinoline-6-sulfonamide hydrochloride] | ++ (maximum ocular hypotensive rate of 15% or more)
C[C@H](CNC1CCCCC1)NS(=O)(=O)c1ccc2cnccc2c1.Cl [Example 61, (R)—N-{1-(cyclohexylamino)propan-2-yl}isoquinoline-6-sulfonamide hydrochloride] | ++ (maximum ocular hypotensive rate of 15% or more)
C[C@H](CNC1Cc2ccccc2C1)NS(=O)(=O)c1ccc2cnccc2c1.Cl [Example 62, (R)—N-{1-(2,3-dihydro-1H-inden-2-ylamino)propan-2-yl}isoquinoline-6-sulfonamide hydrochloride] | ++ (maximum ocular hypotensive rate of 15% or more)
C[C@H](CNCCc1c[nH]c2ccc(Cl)cc12)NS(=O)(=O)c1ccc2cnccc2c1.Cl [Example 63, (R)—N-[1-{2-(5-chloro-1H-indol-3-yl)ethylamino}propan-2-yl]isoquinoline-6-sulfonamide hydrochloride] | + (maximum ocular hypotensive rate of 5% or more and less than 15%)
C[C@H](CNCCc1cn(C)c2ccccc12)NS(=O)(=O)c1ccc2cnccc2c1.Cl [Example 64, (R)—N-[1-{2-(1-methyl-1H-indol-3-yl)ethylamino}propan-2-yl]isoquinoline-6-sulfonamide hydrochloride] | ++ (maximum ocular hypotensive rate of 15% or more)
C[C@H](CNCCc1ccnc2ccccc12)NS(=O)(=O)c1ccc2cnccc2c1.Cl [Example 65] | + (maximum ocular hypotensive rate of 5% or more and less than 15%)
C[C@H](CNCCc1ccco1)NS(=O)(=O)c1ccc2cnccc2c1.Cl [Example 66, (R)—N-[1-{2-(furan-2-yl)ethylamino}propan-2-yl]isoquinoline-6-sulfonamide hydrochloride] | ++ (maximum ocular hypotensive rate of 15% or more)
C[C@H](CNCCc1ccoc1)NS(=O)(=O)c1ccc2cnccc2c1.Cl [Example 67, (R)—N-[1-{2-(furan-3-yl)ethylamino}propan-2-yl]isoquinoline-6-sulfonamide hydrochloride] | ++ (maximum ocular hypotensive rate of 15% or more)
C[C@H](CNCCn1cncn1)NS(=O)(=O)c1ccc2cnccc2c1.Cl [Example 68, (R)—N-[1-{2-(1H-1,2,4-triazol-1-yl)ethylamino}propan-2-yl]isoquinoline-6-sulfonamide hydrochloride] | + (maximum ocular hypotensive rate of 5% or more and less than 15%)
C[C@H](CNCCc1ccc(N)cc1)NS(=O)(=O)c1ccc2cnccc2c1.Cl.Cl.Cl [Example 69, (R)—N-{1-(4-aminophenethylamino)propan-2-yl}isoquinoline-6-sulfonamide trihydrochloride] | ++ (maximum ocular hypotensive rate of 15% or more)
C[C@H](CNCCc1ccc(N(C)C)cc1)NS(=O)(=O)c1ccc2cnccc2c1.Cl [Example 71, (R)—N-{1-(4-dimethylaminophenethylamino)propan-2-yl}isoquinoline-6-sulfonamide hydrochloride] | ++ (maximum ocular hypotensive rate of 15% or more)
C[C@H](CNCCc1ccc(NC(N)=O)cc1)NS(=O)(=O)c1ccc2cnccc2c1.Cl [Example 72, (R)—N-{1-(4-ureidophenethylamino)propan-2-yl}isoquinoline-6-sulfonamide hydrochloride] | + (maximum ocular hypotensive rate of 5% or more and less than 15%)
